We go through 7 compounds from patent US7531344B2, “Induction and stabilization of enzymatic activity in microorganisms” (Georgia State University Research Foundation, Inc., priority 2006, dated 2009).

The test system of assay [1] is asparaginase I. In words: Effect of media composition and inducer on asparaginase I, Example 10. The format is cell-based, Rhodococcus sp. DAP 96253. The conditions noted are these: for effect of medium additive on asparaginase I activity: maltose added to YEMEA, Cobalt 5-50 ppm with glucose or maltose; for Asparaginase I levels / ability to induce asparaginase I activity: inducer 1000 ppm. An excerpt: (§1) In certain embodiments, activity can be referred to in terms of “units” per mass of enzyme or cells (typically based on the dry weight of the cells, e.g., units/mg cdw). A “unit” generally refers to the ability to convert a specific content of a compound to a different compound under a defined set of conditions as a function of time. In specific embodiments, 1 “unit” of nitrile hydratase activity can relate to the ability to convert 1 μmol of acrylonitrile to its corresponding amide per minute, per milligram of cells (dry weight) at a of pH 7.0 and a temperature of 30° C. Similarly, 1 unit of amidase activity can relate to the ability to convert 1 μmol of acrylamide to its corresponding acid per minute, per milligram of cells (dry weight) at a pH of 7.0 and a temperature of 30° C. Further, 1 unit of asparaginase I activity can relate to the ability to convert 1 μmol of asparagine to its corresponding acid per minute, per milligram of cells (dry weight) at a pH of 7.0 and a temperature of 30° C.
Testing was performed to evaluate the effect on asparaginase I activity based upon the inducer used. In particular, testing was performed using asparagine, glutamine, succinonitrile, and isovaleronitrile as inducers (all added at 1000 ppm each).

Assay [2] relates to asparaginase I. In words: Asparaginase I production, Example 8. The format is cell-based. The note with it: asparagine and glutamine 3.8 mM.
Description: as §1
The induction of asparaginase I production in various nitrile hydratase producing microorganisms was evaluated. All strains were grown on YEMEA medium containing 7.5 g/L of urea and 10 ppm cobalt (provided as cobalt chloride) supplemented with asparagine (ASN), glutamine (GLN), or both asparagine and glutamine. The asparagine and glutamine were added 3.8 mM. As a comparative, enzyme production was also evaluated with supplementation was with acrylonitrile (AN), acrylamide (AMD) or acrylonitrile and acrylamide. Growth temperature was in the range of 26° C. to 30° C.

The test system of assay [3] is nitrile hydratase. Briefly: Nitrile hydratase induction by inducers, Example 1. The format is cell-based, Rhodococcus sp., strain DAP 96253. The note with it: for nitrile hydratase induction compared with acrylonitrile: Table 1 comparison.
Description: as §1
(§2) The induction of nitrile hydratase activity and amidase activity in Rhodococcus sp., strain DAP 96253, was evaluated using multiple types of inducers (1000 ppm). Three different samples were cultured in YEMEA medium containing 10 ppm cobalt and 7.5 g/L urea and supplemented with acrylonitrile, asparagine, or glutamine. The specific nitrile hydratase activity and the specific amidase activity in each sample was evaluated, and the results are provided below in Table 1, with activities provided in units/mg cdw (cell dry weight). One unit of nitrile hydratase activity relates to the ability to convert 1 μmol of acrylonitrile to its corresponding amide per minute, per milligram of cells (dry weight) at a of pH 7.0 and a temperature of 30° C. One unit of amidase activity relates to the ability to convert 1 μmol of acrylamide to its corresponding acid per minute, per milligram of cells (dry weight) pH of 7.0 and a temperature of 30° C.

The test system of assay [4] is amidase. Briefly: Amidase production, Example 7. The format is cell-based. The note with it: Pseudomonas chloroaphis ATCC 43051; 30 °C; supplement 3.8 mM. The protocol: (§3) In certain embodiments, activity can be referred to in terms of “units” per mass of enzyme or cells (typically based on the dry weight of the cells, e.g., units/mg cdw). A “unit” generally refers to the ability to convert a specific content of a compound to a different compound under a defined set of conditions as a function of time. […] The induction of nitrile hydratase production and amidase production in various nitrile hydratase producing microorganisms was evaluated. […] The asparagine and glutamine were added 3.8 mM. As a comparative, enzyme production with no supplementation was also tested. Growth temperature was in the range of 26° C. to 30° C.

Assay [5] deals with nitrile hydratase. In words: Nitrile hydratase production, Example 7. The format is cell-based. The conditions noted are these: Pseudomonas chloroaphis ATCC 43051; 30 °C; supplement 3.8 mM. Here is the method: as §3
The test system of assay [6] is amidase. Briefly: Amidase induction by inducers, Example 1. The format is cell-based, Rhodococcus sp., strain DAP 96253. The conditions noted are these: for amidase activity greater than the amidase activity resulting from the use of acrylonitrile: relative to acrylonitrile induction, Table 1.
Description: as §1, §2

In assay [7] the test system is acrylonitrile specific nitrile hydratase. Briefly: 20 liter fermentation with asparagine feed: nitrile hydratase. The format is cell-based, Rhodococcus sp. DAP 96253. The note with it: asparagine 0.15M at 1000 μl/min from t=10 h. Here is the method:
(§4) Rhodococcus sp. DAP 96253 were grown using biphasic medium as the source of inoculum for a 20 liter fermentation. The supplemental addition of medium/carbohydrate (either YEMEA, dextrose or maltose) was made to the modified R2A medium, containing cottonseed hydrolysate substituted for the Proteos Peptone 3 (PP3). Asparagine (0.15M solution) was added at a continuous rate of 1000 μl/min beginning at t=10 h. At the end of the fermentation run, 159 units per milligram cell dry weight of acrylonitrile specific nitrile hydratase, 22 units of amidase per milligram cell dry weight, and 16 g/l cell packed wet weight were produced.

Assay [8] deals with amidase. In words: 20 liter fermentation with asparagine feed: amidase. The format is cell-based, Rhodococcus sp. DAP 96253. The note with it: asparagine 0.15M at 1000 μl/min from t=10 h. Here is the method: as §4
Assay [9] relates to asparaginase I. In words: 20 liter fermentation with asparagine feed: asparaginase I. The format is cell-based, Rhodococcus sp. DAP 96253. The note with it: asparagine 0.15M at 1000 μl/min from t=10 h. The protocol: as §4
Where [10] appears, read: YEMEA - Glucose, Without Cobalt.
The mark [11] stands for this setting: YEMEA - Maltose, Without Cobalt.
Setting [12] is: Rhodococcus sp. DAP 96253, YEMEA, 10 ppm cobalt, 7.5 g/L urea, inducer 1000 ppm.

Turning to `[Co]` [Cobalt], the “effect of medium additive on asparaginase I activity” value in the assay on asparaginase I [1] was “resulted in improvements”.
For `N#CCCC#N` [Succinonitrile, succinonitrile, reference compound], the “Asparaginase I levels” value came to 8.5 units/mg cell dry weight with asparaginase I [1] (YEMEA - Glucose, With Cobalt); 6.5 units/mg cell dry weight in the assay with asparaginase I [1] (setting [10]); 10.0 units/mg cell dry weight in the assay on asparaginase I [1] (YEMEA - Maltose, With Cobalt); 11.0 units/mg cell dry weight in the assay with asparaginase I [1] (setting [11]). For the same compound, the “ability to induce asparaginase I activity” value with asparaginase I [1] is listed as “showed an ability to induce asparaginase I activity”.
Take `OC[C@H]1O[C@H](O[C@H]2[C@H](O)[C@@H](O)C(O)O[C@@H]2CO)[C@H](O)[C@@H](O)[C@@H]1O` (mixture of isomers) [maltose]: the “effect of medium additive on asparaginase I activity” value with asparaginase I [1] is “Higher asparaginase I activity”.
Turning to `NC(=O)CC[C@H](N)C(=O)O` [Glutamine, glutamine], the “Asparaginase I Level Based on Growth Medium Supplementation” value with asparaginase I [2] (Pseudomonas chloroaphis ATCC 43051, 30 °C) is “No”. Further, the “Asparaginase I levels” value with asparaginase I [1] (YEMEA - Glucose, With Cobalt) was determined as 1.9 units/mg cell dry weight; with asparaginase I [1] (setting [10]), 1.5 units/mg cell dry weight; in the assay with asparaginase I [1] (YEMEA - Maltose, With Cobalt) it was 8.1 units/mg cell dry weight; in the assay on asparaginase I [1] (setting [11]), 9.3 units/mg cell dry weight. In addition, the “ability to induce asparaginase I activity” value with asparaginase I [1] was “showed an ability to induce asparaginase I activity”. The “nitrile hydratase induction compared with acrylonitrile” value in the assay on nitrile hydratase [3] is “exceeds the ability of acrylonitrile to induce such activity”. Moreover, in the assay on amidase [4], the “Amidase Level Based on Growth Medium Supplementation” value is given as “No”. Further, the “Nitrile Hydratase Level Based on Growth Medium Supplementation” value in the assay on nitrile hydratase [5] is “No”. Besides, the “amidase activity greater than the amidase activity resulting from the use of acrylonitrile” value with amidase [6] is listed as “approximately 37%”.
Regarding `C=CC#N` [Acrylonitrile, acrylonitrile], the “Asparaginase I Level Based on Growth Medium Supplementation” value with asparaginase I [2] (Brevibacterium ketoglutaricum ATCC 21533, 30 °C) is recorded as 14.6 Units/mg cdw; in the assay with asparaginase I [2] (Pseudomonas chloroaphis ATCC 13985, 26 °C) it was 2 Units/mg cdw; in the assay with asparaginase I [2] (Rhodococcus rhodochrous DAP 96622 (ATCC 55898), 26 °C), 8.2 Units/mg cdw; with asparaginase I [2] (Rhodococcus sp. DAP 96253 (ATCC 55899), 30 °C) it was 7.8 Units/mg cdw. The “Nitrile Hydratase Activity” value in the assay on nitrile hydratase [3] (setting [12]) is 162.23 Units/mg cdw. Also, the “Amidase Activity” value in the assay on amidase [6] (setting [12]) came to 7.59 Units/mg cdw.
For the compound `NC(=O)C[C@H](N)C(=O)O` [Asparagine, asparagine], in assay [7], the “acrylonitrile specific nitrile hydratase produced at end of fermentation” value is 159 units per milligram cell dry weight. The “Asparaginase I levels” value in the assay with asparaginase I [1] (YEMEA - Glucose, With Cobalt) is recorded as 6.5 units/mg cell dry weight; in the assay with asparaginase I [1] (setting [10]) it was 5.3 units/mg cell dry weight; with asparaginase I [1] (setting [11]) it was 8.7 units/mg cell dry weight. Besides, in the assay on nitrile hydratase [3], the “nitrile hydratase induction compared with acrylonitrile” value is recorded as “exceeds the ability of acrylonitrile to induce such activity”. For the same compound, the “amidase produced at end of fermentation” value with amidase [8] was 22 units per milligram cell dry weight. For the same compound, the “amidase activity greater than the amidase activity resulting from the use of acrylonitrile” value in the assay with amidase [6] was “approximately 74%”. In the assay on asparaginase I [9], the “asparaginase I produced at end of fermentation” value was 16 units per milligram cell dry weight.
`CC(C)CC#N` [Isovaleronitrile, isovaleronitrile, reference compound]: the “Asparaginase I levels” value turned out to be 2.9 units/mg cell dry weight with asparaginase I [1] (YEMEA - Glucose, With Cobalt); 3.5 units/mg cell dry weight in the assay with asparaginase I [1] (setting [10]); 7.0 units/mg cell dry weight with asparaginase I [1] (YEMEA - Maltose, With Cobalt); 6.8 units/mg cell dry weight in the assay with asparaginase I [1] (setting [11]).
